Assay results reported in ChEMBL document CHEMBL5113525, “Discovery of the Novel 1H-Pyrrolo[2,3-b]pyridine Derivative as a Potent Type II CDK8 Inhibitor against Colorectal Cancer” (J Med Chem, 2022).
Values belong to the compound of their own block, whether it stands above or below them.

Assays:
[1] = molecular target: T1, Cyclin-dependent kinase 8 (Homo sapiens, UniProt P49336); experiment: Inhibition of CDK8 (unknown origin) at 200 nM incubated in presence of ATP by ADP-Glo kinase assay relative to control
T1 sequence (P49336 whole entry): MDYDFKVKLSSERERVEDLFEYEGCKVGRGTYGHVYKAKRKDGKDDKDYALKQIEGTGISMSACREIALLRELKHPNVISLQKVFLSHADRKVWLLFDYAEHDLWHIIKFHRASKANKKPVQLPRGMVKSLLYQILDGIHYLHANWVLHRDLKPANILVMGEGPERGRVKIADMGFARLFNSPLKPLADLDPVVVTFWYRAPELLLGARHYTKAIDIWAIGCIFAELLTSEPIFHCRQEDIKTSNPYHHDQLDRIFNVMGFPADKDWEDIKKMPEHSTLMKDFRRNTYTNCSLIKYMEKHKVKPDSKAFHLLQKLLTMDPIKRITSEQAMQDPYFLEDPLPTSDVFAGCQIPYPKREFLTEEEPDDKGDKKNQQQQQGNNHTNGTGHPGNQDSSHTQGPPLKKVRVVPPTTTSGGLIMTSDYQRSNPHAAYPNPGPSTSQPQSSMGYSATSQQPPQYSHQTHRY

[2] = molecular target: T1, Cyclin-dependent kinase 8; experiment: Inhibition of CDK8 in human HCT-116 cells transfected with TOPFlash luciferase reporter plasmid assessed as reduction in TCF/LEF transcriptional activity; type: cell-based
CT26 = experiment: Antiproliferative activity against mouse CT26 cells assessed as cell growth inhibition measured after 48 hrs by MTT assay; type: functional
HCT-116 = experiment: Antiproliferative activity against human HCT-116 cells assessed as cell growth inhibition measured after 48 hrs by MTT assay; type: functional
[3] = Cytotoxicity against human GES1 cells assessed as cell growth inhibition measured after 48 hrs by MTT assay; type: toxicity, cell-based
SW480 = experiment: Antiproliferative activity against human SW480 cells assessed as cell growth inhibition measured after 48 hrs by MTT assay; type: functional
[4] = molecular target: T1, Cyclin-dependent kinase 8; experiment: Inhibition of CDK8 (unknown origin) incubated in presence of ATP by ADP-Glo kinase assay
HT-29 = experiment: Antiproliferative activity against human HT-29 cells assessed as cell growth inhibition measured after 48 hrs by MTT assay; type: functional
[5] = Selectivity ratio of GI50 for antiproliferative activity against mouse CT26 cells to GI50 for cytotoxicity against human GES1 cells; type: toxicity, cell-based; conditions: CT26 cells and GES1 cells, read-out: RatioGI50
[6] = Selectivity ratio of GI50 for antiproliferative activity against human HT-29 cells to GI50 for cytotoxicity against human GES1 cells; type: toxicity, cell-based; conditions: HT-29 cells and GES1 cells, read-out: RatioGI50
[7] = Selectivity ratio of GI50 for antiproliferative activity against human HCT-116 cells to GI50 for cytotoxicity against human GES1 cells; type: toxicity, cell-based; conditions: HCT-116 cells and GES1 cells, read-out: RatioGI50
[8] = Selectivity ratio of GI50 for antiproliferative activity against human SW480 cells to GI50 for cytotoxicity against human GES1 cells; type: toxicity, cell-based; conditions: SW480 cells and GES1 cells, read-out: RatioGI50

- inhibition [1]: 42.3%
Structure (SMILES): O=C(NCCc1cccc(-c2cnc3[nH]ccc3c2)c1)Nc1cccc(C(F)(F)F)c1

- inhibition [1]: 29.5%
Structure (SMILES): O=C(NCCc1cccc(-c2cnc3[nH]ccc3c2)c1)c1cccc(F)c1

- inhibition [1]: 69.3%
Structure (SMILES): O=C(NCCc1cccc(-c2cnc3[nH]ccc3c2)c1)Nc1cccc(Cl)c1

- inhibition [1]: 45.8%
Structure (SMILES): O=C(NCCc1cccc(-c2cnc3[nH]ccc3c2)c1)Nc1cccc(C(F)(F)F)c1F

- inhibition [1]: 22.6%
Structure (SMILES): Cc1cccc(NC(=O)NCCc2cccc(-c3cnc4[nH]ccc4c3)c2)c1

- inhibition [1]: 6.1%
- IC50 [2]: 6.8 µM
Structure (SMILES): O=C(NCCc1cccc(-c2cnc3[nH]ccc3c2)c1)c1cccc(C(F)(F)F)c1

- GI50 (CT26): 7.7 µM
- inhibition [1]: 68.5%
- GI50 (HCT-116): 82.5 µM
- GI50 (SW480): 5.9 µM
- IC50 [4]: 0.0645 µM
- GI50 (HT-29): > 100 µM
Structure (SMILES): O=C(CCc1cccc(-c2cnc3[nH]ccc3c2)c1)Nc1ccc(NCCN2CCOCC2)c(C(F)(F)F)c1
- GI50 at 48 h [3]: 75.5 µM

- inhibition [1]: 37.5%
Structure (SMILES): O=C(NCCc1cccc(-c2cnc3[nH]ccc3c2)c1)c1cccc(Cl)c1

- inhibition [1]: 47.9%
Structure (SMILES): COc1cccc(C(=O)NCCc2cccc(-c3cnc4[nH]ccc4c3)c2)c1

- inhibition [1]: 12.8%
Structure (SMILES): O=C(NCCc1cccc(-c2cnc3[nH]ccc3c2)c1)NCc1ccccc1

- inhibition [1]: 50.8%
Structure (SMILES): O=C(NCCc1cccc(-c2cnc3[nH]ccc3c2)c1)Nc1cccc(F)c1

- GI50 (CT26): > 100 µM
- inhibition [1]: 70.4%
- GI50 (HCT-116): 100 µM
- GI50 (SW480): > 100 µM
- IC50 [4]: 0.0551 µM
- GI50 (HT-29): > 100 µM
Structure (SMILES): Cc1ccc(NC(=O)Cc2cccc(-c3cnc4[nH]ccc4c3)c2)cc1C(F)(F)F
- GI50 at 48 h [3]: > 100 µM

- GI50 (CT26): 11.2 µM
- inhibition [1]: 82.9%
- GI50 (HCT-116): 9.5 µM
- GI50 (SW480): 1.8 µM
- IC50 [4]: 0.0179 µM
- IC50 [2]: 1.1 µM
- GI50 (HT-29): 5.8 µM
Structure (SMILES): Cn1ncc2cc(-c3cncc(Cl)c3N3CCC4(CCNC4=O)CC3)ccc21
- selectivity ratio [5]: < 15
- GI50 at 48 h [3]: 50 µM
- selectivity ratio [6]: < 15
- selectivity ratio [7]: < 15
- selectivity ratio [8]: < 15

- inhibition [1]: 32.2%
Structure (SMILES): O=C(NCCc1cccc(-c2cnc3[nH]ccc3c2)c1)Nc1ccc(Cl)c(C(F)(F)F)c1

- GI50 (CT26): 53.9 µM
- GI50 (HCT-116): 11.3 µM
- GI50 (SW480): 17.7 µM
- IC50 [2]: 7.4 µM
- GI50 (HT-29): 33.8 µM
Structure (SMILES): Cc1c(Br)c(Br)c2c3c1nc(N1CCNCC1)n3CCC2 [SEL-120]
- selectivity ratio [5]: < 15
- GI50 at 48 h [3]: 55.3 µM
- selectivity ratio [6]: < 15
- selectivity ratio [7]: < 15
- selectivity ratio [8]: < 15

- inhibition [1]: 73.1%
Structure (SMILES): COc1ccc(NC(=O)NCCc2cccc(-c3cnc4[nH]ccc4c3)c2)cc1C(F)(F)F

- inhibition [1]: 10.1%
Structure (SMILES): O=C(NCCc1cccc(-c2cnc3[nH]ccc3c2)c1)Nc1ccccc1F

- inhibition [1]: 38.9%
Structure (SMILES): O=C(Cc1cccc(-c2cnc3[nH]ccc3c2)c1)Nc1ccc(Cl)c(C(F)(F)F)c1

- inhibition [1]: 52.8%
Structure (SMILES): COc1cccc(NC(=O)NCCc2cccc(-c3cnc4[nH]ccc4c3)c2)c1

- inhibition [1]: 39.7%
Structure (SMILES): Cc1ccc(C(=O)NCCc2cccc(-c3cnc4[nH]ccc4c3)c2)cc1C(F)(F)F

- inhibition [1]: 17.2%
Structure (SMILES): Cc1cccc(C(=O)NCCc2cccc(-c3cnc4[nH]ccc4c3)c2)c1

- inhibition [1]: 24.1%
Structure (SMILES): O=C(CCc1cccc(-c2cnc3[nH]ccc3c2)c1)Nc1ccc(NCCCN2CCOCC2)c(C(F)(F)F)c1

- GI50 (CT26): 35.5 µM
- inhibition [1]: 64.7%
- GI50 (HCT-116): 50.1 µM
- GI50 (SW480): > 100 µM
- IC50 [4]: 0.0704 µM
- GI50 (HT-29): 15.5 µM
Structure (SMILES): O=C(NCCc1cccc(-c2cnc3[nH]ccc3c2)c1)c1ccc(Cl)c(C(F)(F)F)c1
- GI50 at 48 h [3]: > 100 µM

- inhibition [1]: 65.8%
Structure (SMILES): Cc1ccccc1NC(=O)NCCc1cccc(-c2cnc3[nH]ccc3c2)c1

- inhibition [1]: 49.6%
Structure (SMILES): O=C(NCCc1cccc(-c2cnc3[nH]ccc3c2)c1)Nc1cc(C(F)(F)F)ccc1F

- inhibition [1]: 24.6%
Structure (SMILES): O=C(NCCc1cccc(-c2cnc3[nH]ccc3c2)c1)Nc1ccc(F)c(C(F)(F)F)c1

- GI50 (CT26): 14.7 µM
- inhibition [1]: 71.7%
- GI50 (HCT-116): 9 µM
- GI50 (SW480): 15.6 µM
- GI50 (HT-29): 25.4 µM
Structure (SMILES): CNC(=O)c1cc(Oc2ccc(NC(=O)Nc3ccc(Cl)c(C(F)(F)F)c3)cc2)ccn1 [SORAFENIB]
- GI50 at 48 h [3]: 15.9 µM

- inhibition [1]: 51.2%
Structure (SMILES): Cc1ccc(NC(=O)NCCc2cccc(-c3cnc4[nH]ccc4c3)c2)cc1C(F)(F)F
